Experimental data reported in US20070027181A1, “Benzylisoquinoline derivative- or bisbenzylisoquinoline derivative-containing psychotropic agent, analgesic and/or antiphlogistic, and health food” (EDUCATION CENTER OF TRADITIONAL, priority 2004, published 2007).

Tests used:
Assay type in all cases: in vivo, Male ICR mice
[1] = system: mice; experiment: locomotor activity (ultromotivity) test, evaluation of sedative action
Description: (§1) In the following Examples, all extracts and drugs used were dissolved in physiological saline before use for i.p. administration and the dose was 0.1 ml of physiological saline per 10 g of mouse body weight in either case. All extracts and drugs were suspended in physiological saline containing 1% sodium carboxymethylcellulose before use for oral administration and the dose was 0.1 ml of 1% sodium carboxymethylcellulose-containing physiological saline suspension per 10 g of mouse body weight in either case. Male ICR mice (Japan SLC) having a body weight of 25 to 30 g were used in the tests below unless otherwise stated, and were fed in advance at a room temperature of 23±1° C. and a relative humidity of 55±5% in the environment of a cycle of 12-hour-light from 7 a.m. to 7 p.m. and 12-hour-dark from 7 p.m. to 7 a.m. for 3 to 5 days. The mice were allowed to have water and feed freely.
Twenty five mice were grouped into five groups each having five mice, to which 5 mg/kg of N-methylcoclaurine hydrochloride (treatment group 1-1: i.p. administration), 50 mg/kg of neferine hydrochloride (treatment group 1-2: oral administration, and treatment group 1-3: i.p. administration), 50 mg/kg of liensinine hydrochloride (treatment group 1-4: oral administration), or physiological saline (negative control group 1-1: i.p. administration) was administered. The ultromotivity of the mice was analyzed by using a locomotor activity monitoring system (NS-AS01, Neuroscience Inc.). The ultromotivity measurements were performed at an interval of 5 minutes for 60 minutes, and the ultromotivity was judged from the count at each measuring time.
Similar tests were conducted by i.p. administration of 25 mg/kg of N-norarmepavine (treatment group 1-5, n=6), 25 mg/kg of O,O-dimethylcoclaurine (treatment group 1-6, n=5), 10 mg and 25 mg/kg of armepavine (respectively, treatment group 1-7, n=6, and treatment group 1-8, n=6), 10 mg and 25 mg/kg of O-methylarmepavine (respectively, treatment group 1-9, n=6, and treatment group 1-10, n=6), and physiological saline (negative control group 1-2, n=5). The ultromotivity measurements were performed at an interval of five minutes for 60 minutes, and the ultromotivity was subjected to a significant difference test (Tukey's method) by using the counts at respective measuring times.
Tests were performed by using mice administered intraperitoneally with 25 mg/kg of neferine hydrochloride (treatment group 7-1, n=6), 25 mg/kg of liensinine hydrochloride (treatment group 7-2, n=6), and physiological saline (negative control group, n=6) as well as 5 mg/kg of diazepam (positive control group, n=6) and a rotarod equipment (Ugo Basile, Italy) and a locomotor activity monitoring system (NS-AS01, Neuroscience Inc.). The rotarod test was performed by placing a mouse on a rod having a diameter of 4 cm rotating at a speed of 8 rpm 15 minutes after drug administration and observing whether the mouse can stay on the rod without falling for three minutes. The individuals that had fallen from the rotating rod in the period of 3 minutes were judged that they are with motor coordination disorder. […] In addition, the ultromotivity measurements were performed at an interval of five minutes for 60 minutes, and the ultromotivity results were subjected to a significant difference test (Tukey's method) by using the counts at respective measuring times.

[2] = system: mice; experiment: histamine-induced paw edema test; conditions: 10 mg/kg i.p. 15 minutes before histamine 10 μg; 12 minutes after histamine
Description: as §1
Six mice per group were used. […] The thickness of the right hind paw was measured immediately before histamine administration and 12 minutes after histamine administration. The thickness immediately before administration was subtracted from the thickness of the paw after histamine administration, and this was adopted as a thickness of paw edema. As apparent from TABLE 18, paw edema due to histamine was suppressed by neferine. […]

[3] = system: mice; experiment: formalin pad test; conditions: 10 mg/kg i.p. 15 minutes before formalin
Description: as §1
A formalin pad test is a method in which, when formalin is subcutaneously administered to a pad of a mouse, the mouse causes licking, and analgesic action of a test drug is determined by utilizing this. Suppression of licking in a test drug-administered group was investigated relative to a physiological saline-administered control group, and analgestic action was evaluated.
Six mice per group were used. Neferine hydrochloride was intraperitoneally administered at a dose of 25 mg/kg, 50 mg/kg or 100 mg/kg and, after fifteen minutes, 20 μl of a 0.2% by weight formalin aqueous solution was subcutaneously administered to a right hind paw pad. After formalin administration, licking was regarded as a provisional pain reaction, and a licking sustaining time in a first phase from immediately after formalin administration to five minutes after formalin administration and in a second phase from 15 minutes to 30 minutes after formalin administration was measured. Regarding the resulting measurements, a significant difference test was performed by a Dunnet multiple comparison test method.
According to the same manner as in Example 13 except that 10 mg/kg of O-methylarmepavine was intraperitoneally administered in place of neferine, a formalin pad test was performed.

[4] = system: mice; experiment: acetic acid-induced writhing test
Description: as §1
An acetic acid-induced writhing test is a method wherein analgesic action of a compound is determined utilizing this. The number of this writhing is compared between a physiological saline-administered control group and a test drug-administered group, and suppression of the number of writhing by the test drug is investigated thereby assessing its analgesic action.
Seven to ten mice per group were used. Neferine hydrochloride was subcutaneously administered to mice at their back at a dose of 5 mg/kg, 10 mg/kg, 25 mg/kg, 50 mg/kg or 100 mg/kg and, after 15 minutes, a 0.6% by weight solution of acetic acid in water was intraperitoneally administered at 0.1 mL/10 g body weight. The number of writhing was counted every ten minutes for 30 minutes from immediately after acetic acid administration (0 to 10 min, 10 to 20 min, 20 to 30 min). In addition, the total number of writhing for 30 minutes from immediately after acetic acid administration was also obtained. Regarding the resulting measurements, a significant difference test was performed by a Dunnet multiple comparison test method.
According to the same manner as in acetic acid-induced writhing test-1 except that acetic acid was intraperitoneally administered 30 minutes after subcutaneous administration of neferine in the aforementioned acetic acid-induced writhing test-1, an acetic acid-induced writhing test was performed. However, the dose of neferine was only 50 mg/kg.
According to the same manner as in the acetic acid-induced writhing test-1 except that acetic acid was intraperitoneally administered 30 minutes after oral administration of neferine in the aforementioned acetic acid-induced writhing test-1, an acetic acid-induced writhing test was performed. However, five to six mice per group were used. The dose of neferine was 10 mg/kg and 50 mg/kg. Further, aspirin was used as a positive control drug. The dose of aspirin was 50 mg/kg.
(§2) According to the same manner as in acetic acid-induced writhing test-1 except that armepavine was used in place of neferine in the aforementioned acetic acid-induced writhing test-1, an acetic acid-induced writhing test was performed. However, the dose of armepavine was 5 mg/kg and 10 mg/kg.
as §2, with “O-methylarmepavine” for “armepavine”

[5] = system: mice; experiment: rotarod test (motor coordination); conditions: 5 mg/kg i.p., n=6, 15 minutes after administration, 8 rpm, three minutes
Description: as §1
Tests were performed by using mice administered intraperitoneally with 25 mg/kg of neferine hydrochloride (treatment group 7-1, n=6), 25 mg/kg of liensinine hydrochloride (treatment group 7-2, n=6), and physiological saline (negative control group, n=6) as well as 5 mg/kg of diazepam (positive control group, n=6) and a rotarod equipment (Ugo Basile, Italy) and a locomotor activity monitoring system (NS-AS01, Neuroscience Inc.). […]

[6] = 5 mg/kg s.c. 15 minutes before acetic acid
[7] = 10 mg/kg s.c. 15 minutes before acetic acid
[8] = 50 mg/kg oral 30 minutes before acetic acid

COc1cc2c(cc1O)[C@@H](Cc1ccc(O)cc1)N(C)CC2 [N-methylcoclaurine]
sedative activity compared with neferine and liensinine ([1]; 5 mg/kg i.p. versus 50 mg/kg of the bisbenzylisoquinolines): extremely higher activity
Ultromotivity (count) 30 minutes ([1]; 5 mg/kg i.p.): 250 count
Ultromotivity (count) 60 minutes ([1]; 5 mg/kg i.p.): 250 count

COc1ccc(C[C@@H]2c3cc(OC)c(OC)cc3CCN2C)cc1 [O-methylarmepavine]
Thickness of paw edema (mm) [2]: 0.37 ± 0.06 mm
Licking sustaining time (second) First phase ([3]; 0 to 5 minutes): 70.9 ± 11.24 s
Licking sustaining time (second) Second phase ([3]; 15 to 30 minutes): 126.9 ± 18.4 s
Number of writhing 0-10 min. [4, 6]: 11.6 ± 1.41
Number of writhing 0-30 min. [4, 6]: 30.2 ± 1.90
Number of writhing 10-20 min. [4, 6]: 11.2 ± 2.25
Number of writhing 20-30 min. [4, 6]: 7.4 ± 1.52
Number of writhing 0-10 min. [4, 7]: 5.9 ± 1.73
Number of writhing 0-30 min. [4, 7]: 13.3 ± 1.69
Number of writhing 10-20 min. [4, 7]: 4.3 ± 1.19
Number of writhing 20-30 min. [4, 7]: 3.1 ± 0.58

COc1cc2c(cc1OC)C(Cc1ccc(O)cc1)N(C)CC2 (centres unmarked) [armepavine]
Number of writhing 0-10 min. [4, 6]: 19.0 ± 3.21
Number of writhing 0-30 min. [4, 6]: 41.7 ± 5.24
Number of writhing 10-20 min. [4, 6]: 14.7 ± 1.92
Number of writhing 20-30 min. [4, 6]: 9.4 ± 1.81
Number of writhing 0-10 min. [4, 7]: 8.6 ± 1.41
Number of writhing 0-30 min. [4, 7]: 24.6 ± 4.23
Number of writhing 10-20 min. [4, 7]: 10.7 ± 2.24
Number of writhing 20-30 min. [4, 7]: 5.3 ± 1.39

CC(=O)Oc1ccccc1C(=O)O [aspirin, reference compound]
Number of writhing 0-10 min. [4, 8]: 10.8 ± 3.41
Number of writhing 0-30 min. [4, 8]: 3.34 ± 5.35
Number of writhing 10-20 min. [4, 8]: 15.2 ± 1.83
Number of writhing 20-30 min. [4, 8]: 7.4 ± 1.23

CN1C(=O)CN=C(c2ccccc2)c2cc(Cl)ccc21 [diazepam]
Number of individuals fallen [5]: 5

COc1cc2c(cc1OC)[C@@H](Cc1ccc(O)c(Oc3cc4c(cc3OC)CCN(C)[C@@H]4Cc3ccc(O)cc3)c1)N(C)CC2 [liensinine]
Ultromotivity (count) 30 minutes ([1]; 50 mg/kg oral): 600 count
Ultromotivity (count) 60 minutes ([1]; 50 mg/kg oral): 800 count
